Structures are written as SMILES.

One data set addresses DNA polymerase β (Pol β) (Homo sapiens, UniProt P06746). The conditions noted are these: cited from earlier work.
Data set [1] relates to MEFs lacking Pol β (Pol β −/−). Briefly: Cytotoxicity in Pol β null mouse embryonic fibroblasts. The format is cell-based. The conditions noted are these: MMS alone.

With `C=CCc1ccc(O)c(-c2ccc(O)c(CC=C)c2)c1` [honokiol], on DNA polymerase β (Pol β), the “selectivity for Pol β over Pol λ” value is on record as “not selective for Pol β over Pol λ”.

Turning to `COS(C)(=O)=O` [MMS, methylmethanesulfonate], the “cytotoxicity relative to wild type MEFs” value in data set [1] is recorded as “considerably more toxic”.

The values are drawn from publication PMC8284926 (Journal of the American Chemical Society, 2021).
